18 compounds from US20250122169A1, “PPARG INVERSE AGONISTS AND USES THEREOF” (Flare Therapeutics Inc., priority 2021, published 2025) can be followed below.

As usually defined, the inhibition is the percentage by which the read-out fell short of the control. One may read the EC50 as the concentration needed to bring the measured effect to its halfway point.

In assay [1] the test system is ANGPTL4, a PPARG target gene, in HT1197 (RXRA S427F mutation) cells. The experiment in a line: Bladder cancer pharmacodynamic assay, HT1197 cell assay (qPCR of PPARG target gene ANGPTL4). The assay is classed as cell-based. The settings on record: Homo sapiens; for inhibition at 0.1 µM: read-out: % inhibition of ANGPTL4 @ 100 nM, 100 nM compound, 24 hours, relative to DMSO control; for EC50: 24 hours treatment, qPCR. How it is done:
Quantitative PCR was performed using an ABI QuantStudio 7 Flex Reaction system. Data were analyzed and reported relative to DMSO control using the comparative Ct method (ΔΔCt).
(In general: Real-time PCR tracks product formation cycle by cycle.)

In assay [2] the target is T1, PPARG/RXRA LBD heterodimer (Homo sapiens, UniProt P37231).
T1 construct: 2 nM WT PPARG LBD (E. coli expressed, His-TEV-Q203-Y477); fused on or other part: N-terminal His tag with TEV site on the PPARG LBD
The assay is described as follows: PPARγ-NCOR1 recruitment assay (TR-FRET). The settings on record: for Emax: 3 h, maximal extent, T0070907 defined as 100%, DMSO 0%, read-out: % NCOR recruitment relative to T907; for EC50: TR-FRET, NCOR1 ID2 peptide, 80 nM Rosiglitazone, 3 hours, read-out: PPARG-NCOR recruitment assay EC50. In kind it is biochemical. As for the experimental part: Compound potency (EC50) and maximal extent of NCOR1 recruitment to PPARG were assessed a TR-FRET binding assay measuring association of a biotinylated NCOR1 ID2 peptide (Biotin-[…]-amide) to PPARG/RXRA LBD heterodimer.
On the technique in general: TR-FRET usually uses a lanthanide donor and a delayed reading to cut background.
T1 sequence (O75376 2251-2273 limits assumed, one chain of several, further chain): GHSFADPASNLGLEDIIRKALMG

The target in assay [3] is T2, PPARG/RXRA LBD heterodimer (Homo sapiens, UniProt P37231).
T2 construct: His-TEV-Q203-Y477; Uniprot ID P37231-2; made in house; host or cells: E. coli
T2 sequence (P37231 203-477 isoform P37231-2): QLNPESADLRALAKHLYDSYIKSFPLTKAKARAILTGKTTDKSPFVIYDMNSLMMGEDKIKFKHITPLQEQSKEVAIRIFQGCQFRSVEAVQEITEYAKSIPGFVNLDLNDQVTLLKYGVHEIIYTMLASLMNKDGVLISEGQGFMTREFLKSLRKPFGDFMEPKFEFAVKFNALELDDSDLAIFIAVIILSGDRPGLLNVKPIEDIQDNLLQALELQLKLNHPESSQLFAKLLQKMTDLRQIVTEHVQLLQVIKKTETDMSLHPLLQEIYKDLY
T2 sequence (P19793 228-462 partner limits assumed): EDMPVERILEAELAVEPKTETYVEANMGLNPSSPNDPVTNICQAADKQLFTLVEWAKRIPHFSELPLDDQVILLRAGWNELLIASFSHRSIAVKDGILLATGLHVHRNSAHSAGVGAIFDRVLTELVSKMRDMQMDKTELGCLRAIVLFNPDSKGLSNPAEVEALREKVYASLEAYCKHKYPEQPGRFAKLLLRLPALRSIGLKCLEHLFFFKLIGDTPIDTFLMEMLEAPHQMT
The assay is described as follows: PPARγ-MED1 blockade assay (TR-FRET). The assay is classed as biochemical. The note with it: for EC50: TR-FRET, MED1 LxxLL peptide, 80 nM Rosiglitazone, 3 hours; for Emax: maximal extent, GW9662 defined as 100%, DMSO 0%, read-out: % MED1 blockade relative to GW9662. As for the experimental part:
Compound potency (IC50) and maximal extent of MED1 repulsion to PPARG were assessed a TR-FRET binding assay measuring association of a biotinylated MED1 LxxLL peptide (Biotin-[…]-amide) to PPARG/RXRA LBD heterodimer.

As for `CN(C)C(=O)[C@H]1CCCN(c2c(F)cc3[nH]c(-c4cc(C#N)ncc4S(C)(=O)=O)cc(=O)c3c2F)C1` (single isomer, unassigned) [Example 34], the inhibition at 0.1 µM in assay [1] turned out to be 87%. Also, in assay [2], the Emax is above 100% and the EC50 is below 10 nM. In addition, in assay [3], the EC50 is below 10 nM and the Emax is above 100%.

With `N#Cc1ccc(Cl)c(-c2cc(=O)c3cc(F)c(F)cc3[nH]2)n1` [Example 1, 5-chloro-6-(6,7-difluoro-4-oxo-1,4-dihydroquinolin-2-yl)picolinonitrile], the inhibition at 0.1 µM in assay [1] was 91%. Moreover, in assay [2], the Emax was above 100% and the EC50 was 10 to 100 nM. Further, in assay [3], the EC50 lay in the range of 10 to 100 nM and the Emax was above 100%.

Regarding `N#Cc1cc(-c2cc(=O)c3c(F)cc(F)cc3[nH]2)c(Cl)cn1` [Example 2, 5-chloro-4-(5,7-difluoro-4-oxo-1,4-dihydroquinolin-2-yl)picolinonitrile], in assay [1], the midpoint of the response, the EC50, lay at 0.14 nM and the inhibition at 0.1 µM worked out at 91%. Besides, in assay [2], the Emax is above 100% and the EC50 was below 10 nM. Further, in assay [3], the concentration for a half-maximal effect (EC50) was below 10 nM and the Emax was above 100%.

With `N#Cc1ccc(Cl)c(-c2cc(=O)c3c(F)cc(F)cc3[nH]2)n1` [Example 3, 5-chloro-6-(5,7-difluoro-4-oxo-1,4-dihydroquinolin-2-yl)picolinonitrile], the figures for the EC50 in assay [1], in assay [2] and in assay [3] were 0.09 nM, below 10 nM and below 10 nM, respectively. Besides, the inhibition at 0.1 µM in assay [1] amounted to 95%. In addition, the Emax in assay [2] and in assay [3] was above 100% throughout.

On to `N#Cc1cc(-c2cc(=O)c3ccc(Cl)cc3[nH]2)c(Cl)cn1` [Example 4, 5-chloro-4-(7-chloro-4-oxo-1,4-dihydroquinolin-2-yl)picolinonitrile], for which the inhibition at 0.1 µM in assay [1] came to 88%. In assay [2], the Emax was above 100% and the EC50 is below 10 nM. Moreover, in assay [3], the EC50 is below 10 nM and the Emax was above 100%.

Take `N#Cc1ccc(Cl)c(-c2cc(=O)c3ccccc3[nH]2)n1` [Example 5, 5-chloro-6-(4-oxo-1,4-dihydroquinolin-2-yl)picolinonitrile]: the inhibition at 0.1 µM in assay [1] came out at 71%. In assay [2], the Emax was below 100% and the EC50 lay in the range of 10 to 100 nM. Also, in assay [3], the EC50 was 10 to 100 nM and the Emax is above 100%.

Consider `N#Cc1ccc(Cl)c(-c2cc(=O)c3ccc(Cl)cc3[nH]2)n1` [Example 6, 5-chloro-6-(7-chloro-4-oxo-1,4-dihydroquinolin-2-yl)picolinonitrile], for which the inhibition at 0.1 µM in assay [1] worked out at 73%. In addition, in assay [2], the Emax was above 100% and the EC50 was below 10 nM. Besides, in assay [3], the EC50 was below 10 nM and the Emax is above 100%.

With `COc1ccc(C#N)nc1-c1cc(=O)c2c(F)cc(F)cc2[nH]1` [Example 7, 6-(5,7-difluoro-4-oxo-1,4-dihydroquinolin-2-yl)-5-methoxypicolinonitrile], the inhibition at 0.1 µM in assay [1] was 23%. In assay [2], the Emax is above 100% and the concentration for a half-maximal effect (EC50) was above 10000 nM. Moreover, in assay [3], the concentration for a half-maximal effect (EC50) is above 10000 nM and the Emax is above 100%.

`CSc1ccc(C#N)nc1-c1cc(=O)c2c(F)cc(F)cc2[nH]1` [Example 8, 6-(5,7-difluoro-4-oxo-1,4-dihydroquinolin-2-yl)-5-(methylthio)picolinonitrile]: in assay [2], the Emax was above 100% and the EC50 is above 10000 nM. Further, in assay [3], the 50% effective concentration (EC50) is above 10000 nM and the Emax is above 100%.

For the compound `COc1cnc(C#N)cc1-c1cc(=O)c2c(F)cc(F)cc2[nH]1` [Example 9, 4-(5,7-difluoro-4-oxo-1,4-dihydroquinolin-2-yl)-5-methoxypicolinonitrile], the inhibition at 0.1 µM in assay [1] stood at 22%. In assay [2], the Emax is below 100% and the EC50 was 100 to 1000 nM. In addition, in assay [3], the EC50 lay within 100 to 1000 nM and the Emax was above 100%.

With `CN(C)CCOc1cnc(C#N)cc1-c1cc(=O)c2c(F)cc(F)cc2[nH]1` [Example 11, 4-(5,7-difluoro-4-oxo-1,4-dihydroquinolin-2-yl)-5-(2-(dimethylamino)-ethoxy)-picolinonitrile], the inhibition at 0.1 µM in assay [1] turned out to be 58%. Further, the Emax in assay [2] and in assay [3] was above 100% throughout. For the same compound, the EC50 in assay [2] and in assay [3] was 1000 to 10000 nM each time.

Consider `CCSc1cnc(C#N)cc1-c1cc(=O)c2c(F)cc(F)cc2[nH]1` [Example 12, 4-(5,7-difluoro-4-oxo-1,4-dihydroquinolin-2-yl)-5-(ethylthio)picolinonitrile], for which the inhibition at 0.1 µM in assay [1] was 18%. The Emax in assay [2] and in assay [3] was below 100% throughout. For the same compound, the EC50 in assay [2] and in assay [3] was above 10000 nM each time.

Turning to `CN1CCN(c2c(F)cc3[nH]c(-c4nc(C#N)ccc4Cl)cc(=O)c3c2F)CC1` [Example 13, 5-chloro-6-(5,7-difluoro-6-(4-methylpiperazin-1-yl)-4-oxo-1,4-dihydroquinolin-2-yl)picolinonitrile], in assay [1], the inhibition at 0.1 µM came out at 78%. For the same compound, the Emax in assay [2] and in assay [3] was above 100% in each case. Also, the EC50 in assay [2] and in assay [3] was 10 to 100 nM throughout.

As to `CN1CCN(c2cc3c(=O)cc(-c4cc(C#N)ncc4Cl)[nH]c3cc2Cl)CC1` [Example 14, 5-chloro-4-(7-chloro-6-(4-methylpiperazin-1-yl)-4-oxo-1,4-dihydroquinolin-2-yl)picolinonitrile], the inhibition at 0.1 µM in assay [1] turned out to be 88%. In addition, in assay [2], the Emax was above 100% and the EC50 lay in the range of 10 to 100 nM. In assay [3], the EC50 is 10 to 100 nM and the Emax is above 100%.

With `CN1CCN(c2c(F)cc3[nH]c(-c4cc(C#N)ncc4Cl)cc(=O)c3c2F)CC1` [Example 15, 5-chloro-4-(5,7-difluoro-6-(4-methylpiperazin-1-yl)-4-oxo-1,4-dihydroquinolin-2-yl)picolinonitrile], in assay [1], the response was half-maximal at 3.1 nM (EC50) and the inhibition at 0.1 µM is 81%. In assay [2], the Emax was above 100% and the concentration for a half-maximal effect (EC50) was 10 to 100 nM. For the same compound, in assay [3], the EC50 was 10 to 100 nM and the Emax is above 100%.

In the case of `CN1CCC(c2c(F)cc3[nH]c(-c4nc(C#N)ccc4Cl)cc(=O)c3c2F)CC1` [Example 16, 5-chloro-6-(5,7-difluoro-6-(1-methylpiperidin-4-yl)-4-oxo-1,4-dihydroquinolin-2-yl)picolinonitrile], the inhibition at 0.1 µM in assay [1] is 85%. Moreover, in assay [2], the Emax is above 100% and the EC50 fell in the range of 10 to 100 nM. In addition, in assay [3], the 50% effective concentration (EC50) was 10 to 100 nM and the Emax was above 100%.

With `N#Cc1ccc(Cl)c(-c2cc(=O)c3c(F)c(N4CCS(=O)(=O)CC4)c(F)cc3[nH]2)n1` [Example 17, 5-chloro-6-(6-(1,1-dioxidothiomorpholino)-5,7-difluoro-4-oxo-1,4-dihydroquinolin-2-yl)picolinonitrile], in assay [1], the inhibition at 0.1 µM was 78%. In assay [2], the Emax was above 100% and the EC50 fell in the range of 10 to 100 nM. In assay [3], the EC50 was 10 to 100 nM and the Emax was above 100%.

As for `CS(=O)(=O)c1cnc(C#N)cc1-c1cc(=O)c2c(F)cc(F)cc2[nH]1` [Example 29, 4-(5,7-difluoro-4-oxo-1,4-dihydroquinolin-2-yl)-5-(methylsulfonyl)picolinonitrile], in assay [1], the EC50 worked out at 0.49 nM and the inhibition at 0.1 µM was found to be 90%.
